According to paper PMC10874388, “Cyclic peptides discriminate BCL-2 and its clinical mutants from BCL-XL by engaging a single-residue discrepancy” (Nature Communications, 2024):
Where “and” joins values, the source holds several entries; their conditions need not be identical. Equal values may be shown once.

Key:
Assay type in all cases: cell-based
[1] = system: A549 cells overexpressing BCL-2 WT; test: Cell viability assay, A549 stably overexpressing BCL-2 WT; conditions: for luminescence reading (raw, replicate wells) / luminescence reading, everage / inhibition rate: BCL2-WT A549; for luminescence reading, everage: mean of 6 wells
Description: (§1) Cell viability was measured using CellTiter-Glo® 2.0 Reagent (Promega, G9242). […] After different inhibitors were added into serum-free medium and cultured for 4 h (RS4:11 for 6 h), FBS were supplemented to 10% and then incubated totally for 24 h or 48 h. Finally, the IC50 values were calculated based on measurements using a microplate reader (Thermo, Varioskan LUX). Statistical analysis was performed using software GraphPad Prism 7.0.
Lentivirus packaging vectors pMDLg/pRRE, pRSV-Rev, and pVSV-G were obtained from Prof. Han Jiahuai’s lab (Xiamen University). Lentiviruses were produced using 3rd-generation lentivirus packaging plasmids transiently transfected into HEK293T cells with the constructs of interest using 0.25 M CaCl2. Media was changed after 16 h, and supernatants containing infectious virus particles were harvested 24 h later. A second viral harvest was made following a further 24 h incubation with fresh media. Virus containing supernatant was filtered through a […], and stored at 4 °C or −80 °C until being used. Typically, A549 cells were seeded into 10 cm cell culture dishes at 4 ~ 8 × 10^5 cells/cm^2. An equivalent volume of virus containing culture medium was added along with polybrene (Sigma) to a final concentration of 10 µg/mL. Cells were incubated at 37 °C for 20 h, before they were washed and resuspended in fresh culture media. The expression level of BCL-2 was measured by qPCR and western blot methods.

Jurkat cells = test: Cell viability assay (CellTiter-Glo), Jurkat; conditions: for inhibition relative to 0 uM control, replicates / raw viability signal, replicates: listed as ABT199
How it was run: (§2)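 Compounds added in serum-free medium for 4 h (RS4:11: 6 h), then FBS brought to 10% and incubation continued to 24 h or 48 h total at 37 °C, 5% CO2. Viability by CellTiter-Glo 2.0 luminescence; IC50 calculated.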

Daudi cells = test: Cell viability assay (CellTiter-Glo), Daudi; conditions: for IC50: 48 h treatment, CellTiter-Glo; for inhibition relative to 0 uM control, replicates / raw viability signal, replicates: listed as ABT199
How it was run: as §2

A549 cells (control) = test: Cell viability assay (CellTiter-Glo), normal A549 (control); conditions: A549; for inhibition rate: fraction; for inhibition rate / raw viability reading: replicates
Description: The cell lines Jurkat (TIB-152), El4 (TIB-39), Daudi (ccl-213), RS4:11 (crl-1873), A549 (ccl-185), HepG2 (hb-8065) and PANC-1 (crl-1469) were purchased from ATCC (American Type Culture Collection), and MGC-803 (C6582) was purchased from Beyotime (https://www.beyotime.com/product/C6582.htm). […] Daudi and RS4:11 cells were cultured in RPMI-1640 medium (HyClone, SH30809.01) and 10% FBS (Gibco, 10099-141), whereas HepG2, MGC-803 and PANC-1 cells were cultured in MDEM (HyClone, SH30243.01). Cells were maintained at 37 °C under a humidified, 5% (v/v) CO2-containing atmosphere.
as §1

IC50 ([1]; Homo sapiens, A549, 48 h, CellTiter-Glo, n = 6): 2.5 ± 0.2 µM | IC50 (Jurkat cells; Homo sapiens, 48 h treatment, CellTiter-Glo): 1.2 ± 0.2 µM | IC50 (Daudi cells): 9.1 ± 0.4 µM | IC50 (Daudi cells; Homo sapiens, Daudi, 48 h): 9.12 µM
SMILES: CC1(C)CCC(CN2CCN(c3ccc(C(=O)NS(=O)(=O)c4ccc(NCC5CCOCC5)c([N+](=O)[O-])c4)c(Oc4cnc5[nH]ccc5c4)c3)CC2)=C(c2ccc(Cl)cc2)C1 [venetoclax]
luminescence reading (raw, replicate wells) ([1]; ABT-199 0.390625 uM): 644100 and 629100 and 637900 and 643500 and 647000 and 655800 | luminescence reading, everage ([1]; ABT-199 0.390625 uM): 642900 | inhibition rate ([1]; ABT-199 0.390625 uM, replicate wells): -3.29% and -4.73% and -5.65% and -6% and -8% and -5.55% | luminescence reading (raw, replicate wells) ([1]; ABT-199 0.78125 uM): 567400 and 598600 and 586100 and 654900 and 608300 and 579900 | luminescence reading, everage ([1]; ABT-199 0.78125 uM): 599200 | inhibition rate ([1]; ABT-199 0.78125 uM, replicate wells): 1.72% and 3.77% and -7.52% and 0.129% and 5% and 1.62% | luminescence reading (raw, replicate wells) ([1]; ABT-199 1.5625 uM): 298800 and 328200 and 290000 and 313400 and 302200 and 296200 | luminescence reading, everage ([1]; ABT-199 1.5625 uM): 304800 | inhibition rate ([1]; ABT-199 1.5625 uM, replicate wells): 52% and 49% and 50% and 51% | luminescence reading (raw, replicate wells) ([1]; ABT-199 3.125 uM): 264200 and 271400 and 265500 and 281900 and 276200 and 275000 | luminescence reading, everage ([1]; ABT-199 3.125 uM): 272367 | inhibition rate ([1]; ABT-199 3.125 uM, replicate wells): 56% and 54% | luminescence reading (raw, replicate wells) ([1]; ABT-199 6.25 uM): 239200 and 242900 and 250800 and 260000 and 262000 and 251900 | luminescence reading, everage ([1]; ABT-199 6.25 uM): 251133 | inhibition rate ([1]; ABT-199 6.25 uM, replicate wells): 59% and 57% | luminescence reading (raw, replicate wells) ([1]; ABT-199 12.5 uM): 192300 and 201400 and 189800 and 189400 and 190500 and 194300 | luminescence reading, everage ([1]; ABT-199 12.5 uM): 192950 | inhibition rate ([1]; ABT-199 12.5 uM, replicate wells): 69% and 68% | luminescence reading (raw, replicate wells) ([1]; ABT-199 25 uM): 124100 and 129200 and 123800 and 128900 and 121100 and 127700 | luminescence reading, everage ([1]; ABT-199 25 uM): 125800 | inhibition rate ([1]; ABT-199 25 uM, replicate wells): 80% | luminescence reading (raw, replicate wells) ([1]; ABT-199 50 uM): 61440 and 62870 and 63340 and 62270 and 63280 and 66020 | luminescence reading, everage ([1]; ABT-199 50 uM): 63203 | inhibition rate ([1]; ABT-199 50 uM, replicate wells): 89% | luminescence reading (raw, replicate wells) ([1]; ABT-199 100 uM): 19300 and 21810 and 21770 and 21930 and 21040 and 20180 | luminescence reading, everage ([1]; ABT-199 100 uM): 21005 | inhibition rate ([1]; ABT-199 100 uM, replicate wells): 97% | luminescence reading (raw, replicate wells) ([1]; ABT-199 200 uM): 4077 and 3911 and 4092 and 4449 and 4173 and 4465 | luminescence reading, everage ([1]; ABT-199 200 uM): 4195 | inhibition at 1.5625 µM ([1]; Homo sapiens, A549, BCL2-WT A549, ABT-199 1.5625 uM, replicate wells, read-out: inhibition rate): 46% | inhibition at 3.125 µM ([1]; Homo sapiens, A549, BCL2-WT A549, ABT-199 3.125 uM, replicate wells, read-out: inhibition rate): 55% | inhibition at 6.25 µM ([1]; Homo sapiens, A549, BCL2-WT A549, ABT-199 6.25 uM, replicate wells, read-out: inhibition rate): 60% | inhibition at 12.5 µM ([1]; Homo sapiens, A549, BCL2-WT A549, ABT-199 12.5 uM, replicate wells, read-out: inhibition rate): 67% | inhibition at 25 µM ([1]; Homo sapiens, A549, BCL2-WT A549, ABT-199 25 uM, replicate wells, read-out: inhibition rate): 79% | inhibition at 50 µM ([1]; Homo sapiens, A549, BCL2-WT A549, ABT-199 50 uM, replicate wells, read-out: inhibition rate): 90% | inhibition at 100 µM ([1]; Homo sapiens, A549, BCL2-WT A549, ABT-199 100 uM, replicate wells, read-out: inhibition rate): 96% | inhibition at 200 µM ([1]; Homo sapiens, A549, BCL2-WT A549, ABT-199 200 uM, replicate wells, read-out: inhibition rate): 99% | inhibition relative to 0 uM control, replicates (Jurkat cells; 0.09375 uM): 3.52% and 1.46% and 6% and 5% (2×) and 2.56% | raw viability signal, replicates (Jurkat cells; 0.09375 uM): 1920000 and 1961000 and 1868000 and 1890000 and 1939000 and 1891000 | inhibition relative to 0 uM control, replicates (Jurkat cells; 0.1875 uM): 17% and 21% (2×) and 20% (2×) | raw viability signal, replicates (Jurkat cells; 0.1875 uM): 1613000 and 1643000 and 1579000 and 1582000 and 1598000 and 1590000 | inhibition relative to 0 uM control, replicates (Jurkat cells; 0.375 uM): 36% and 31% and 32% and 27% and 22% and 17% | raw viability signal, replicates (Jurkat cells; 0.375 uM): 1276000 and 1374000 and 1347000 and 1456000 and 1547000 and 1657000 | inhibition relative to 0 uM control, replicates (Jurkat cells; 0.75 uM): 38% and 41% and 36% and 33% and 32% | raw viability signal, replicates (Jurkat cells; 0.75 uM): 1124000 and 1225000 and 1165000 and 1278000 and 1326000 and 1356000 | inhibition relative to 0 uM control, replicates (Jurkat cells; 1.5 uM): 52% and 54% (2×) and 53% and 47% | raw viability signal, replicates (Jurkat cells; 1.5 uM): 903200 and 948100 and 908900 and 906300 and 926500 and 1061000 | inhibition relative to 0 uM control, replicates (Jurkat cells; 3 uM): 86% (3×) and 87% (2×) | raw viability signal, replicates (Jurkat cells; 3 uM): 248500 and 275900 and 263600 and 270200 and 263000 and 279700 | inhibition at 0.1875 µM (Jurkat cells; Homo sapiens, 0.1875 uM, read-out: inhibition relative to 0 uM control, replicates): 19% | inhibition at 0.75 µM (Jurkat cells; Homo sapiens, 0.75 uM, read-out: inhibition relative to 0 uM control, replicates): 44% | inhibition at 1.5 µM (Jurkat cells; Homo sapiens, 1.5 uM, read-out: inhibition relative to 0 uM control, replicates): 55% | inhibition at 3 µM (Jurkat cells; Homo sapiens, 3 uM, read-out: inhibition relative to 0 uM control, replicates): 88% | inhibition relative to 0 uM control, replicates (Daudi cells; Daudi, 0.78125 uM): -8% and 9% and -10% and 0.517% and -5.68% and 2.67% | raw viability signal, replicates (Daudi cells; Daudi, 0.78125 uM): 1603 and 1350 and 1637 and 1476 and 1568 and 1444 | inhibition relative to 0 uM control, replicates (Daudi cells; Daudi, 1.5625 uM): 2.61% and -1.71% and 13% and -2.52% and -11% and 4.63% | raw viability signal, replicates (Daudi cells; Daudi, 1.5625 uM): 1445 and 1509 and 1291 and 1521 and 1645 and 1415 | inhibition relative to 0 uM control, replicates (Daudi cells; Daudi, 3.125 uM): 2% and 16% (2×) and 13% and 9% and 19% | raw viability signal, replicates (Daudi cells; Daudi, 3.125 uM): 1454 and 1252 and 1287 and 1241 and 1349 and 1200 | inhibition relative to 0 uM control, replicates (Daudi cells; Daudi, 6.25 uM): 29% and 42% and 9% and 30% and 46% and 26% | raw viability signal, replicates (Daudi cells; Daudi, 6.25 uM): 1056 and 861.7 and 1353 and 1036 and 800.8 and 1094 | inhibition relative to 0 uM control, replicates (Daudi cells; Daudi, 12.5 uM): 77% and 57% and 48% and 71% and 73% and 72% | raw viability signal, replicates (Daudi cells; Daudi, 12.5 uM): 335.5 and 640.9 and 766.9 and 436.4 and 400.1 and 410.0 | inhibition relative to 0 uM control, replicates (Daudi cells; Daudi, 25 uM): 93% (2×) and 70% and 85% and 88% and 97% | raw viability signal, replicates (Daudi cells; Daudi, 25 uM): 106.6 and 104.3 and 439.1 and 228.2 and 183.6 and 51.32 | average (raw viability reading) (A549 cells (control); ABT199 0.3125 uM): 403300 | inhibition rate (A549 cells (control); ABT199 0.3125 uM): 0.1384 and 0.2199 and 0.2562 and 0.2483 and 0.2515 and 0.3247 | raw viability reading (A549 cells (control); ABT199 0.3125 uM): 394600 and 398800 and 397100 and 358300 and 457100 and 413900 | average (raw viability reading) (A549 cells (control); ABT199 0.625 uM): 437733 | inhibition rate (A549 cells (control); ABT199 0.625 uM): 0.1102 and 0.1614 and 0.1995 and 0.1861 and 0.1882 and 0.2042 | raw viability reading (A549 cells (control); ABT199 0.625 uM): 424700 and 431800 and 430700 and 422200 and 472100 and 444900 | average (raw viability reading) (A549 cells (control); ABT199 1.25 uM): 415750 | inhibition rate (A549 cells (control); ABT199 1.25 uM): 0.1437 and 0.2152 and 0.2434 and 0.2293 and 0.2263 and 0.2404 | raw viability reading (A549 cells (control); ABT199 1.25 uM): 401400 and 408900 and 410500 and 403000 and 454300 and 416400 | average (raw viability reading) (A549 cells (control); ABT199 2.5 uM): 279550 | inhibition rate (A549 cells (control); ABT199 2.5 uM): 0.4238 and 0.4647 and 0.4862 and 0.4847 and 0.4854 and 0.4937 | raw viability reading (A549 cells (control); ABT199 2.5 uM): 272600 and 273400 and 273000 and 268600 and 305700 and 284000 | average (raw viability reading) (A549 cells (control); ABT199 5 uM): 231967
